Test results: PubChem BioAssay (NCI)
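Method: 48-hour compound exposure of cells in 96-well plates, five concentrations, linear interpolation of endpoints. The concentration for full growth arrest is given as TGI.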

How the values were obtained:
Experiment in all cases: NCI anticancer screen, dose series, 48 h
RPMI-8226 leukemia = test system: RPMI-8226 leukemia
RXF-631 renal = test system: RXF-631 renal
M19-MEL melanoma = test system: M19-MEL melanoma
DMS 273 small cell lung = test system: DMS 273 small cell lung
OVCAR-5 ovarian = test system: OVCAR-5 ovarian
SF-539 CNS = test system: SF-539 CNS
ACHN renal = test system: ACHN renal
DMS 114 small cell lung = test system: DMS 114 small cell lung
DLD-1 colon = test system: DLD-1 colon
HCT-15 colon = test system: HCT-15 colon
HOP-18 NSCLC = test system: HOP-18 NSCLC
XF 498 CNS = test system: XF 498 CNS
KM20L2 colon = test system: KM20L2 colon
NCI-H23 lung = test system: NCI-H23 lung
LXFL 529 NSCLC = test system: LXFL 529 NSCLC
MOLT-4 leukemia = test system: MOLT-4 leukemia
SNB-78 CNS = test system: SNB-78 CNS

Measured: TGI

O=c1cc(-c2ccc(Cl)cc2)oc2cc(OCCCOc3ccc4c(=O)cc(-c5ccc(Cl)cc5)oc4c3)ccc12
> 100 µM: RPMI-8226 leukemia | RXF-631 renal | M19-MEL melanoma | DMS 273 small cell lung | OVCAR-5 ovarian | SF-539 CNS | ACHN renal | DMS 114 small cell lung | DLD-1 colon | HCT-15 colon | HOP-18 NSCLC | XF 498 CNS | KM20L2 colon | NCI-H23 lung | LXFL 529 NSCLC | MOLT-4 leukemia | SNB-78 CNS

COC(=O)C(Cc1nc2ccc(Cl)cc2[nH]c1=O)/C(=N/NC(N)=O)C(=O)Nc1ccc(Cl)cc1 (stereo not drawn)
> 100 µM: RPMI-8226 leukemia | RXF-631 renal | M19-MEL melanoma | DMS 273 small cell lung | OVCAR-5 ovarian | SF-539 CNS | ACHN renal | DMS 114 small cell lung | HCT-15 colon | HOP-18 NSCLC | XF 498 CNS | KM20L2 colon | NCI-H23 lung | LXFL 529 NSCLC | MOLT-4 leukemia | SNB-78 CNS
